Data from article PMC6386362, “Mechanism and resistance for antimycobacterial activity of a fluoroquinophenoxazine compound” (PLoS ONE, 2019).

Target: T1, Mtb topoisomerase I (MtbTopI) (Mycobacterium tuberculosis, UniProt P9WG49)
T1 construct: gene topA
Assay type: biochemical

T1 sequence (P9WG49 whole entry): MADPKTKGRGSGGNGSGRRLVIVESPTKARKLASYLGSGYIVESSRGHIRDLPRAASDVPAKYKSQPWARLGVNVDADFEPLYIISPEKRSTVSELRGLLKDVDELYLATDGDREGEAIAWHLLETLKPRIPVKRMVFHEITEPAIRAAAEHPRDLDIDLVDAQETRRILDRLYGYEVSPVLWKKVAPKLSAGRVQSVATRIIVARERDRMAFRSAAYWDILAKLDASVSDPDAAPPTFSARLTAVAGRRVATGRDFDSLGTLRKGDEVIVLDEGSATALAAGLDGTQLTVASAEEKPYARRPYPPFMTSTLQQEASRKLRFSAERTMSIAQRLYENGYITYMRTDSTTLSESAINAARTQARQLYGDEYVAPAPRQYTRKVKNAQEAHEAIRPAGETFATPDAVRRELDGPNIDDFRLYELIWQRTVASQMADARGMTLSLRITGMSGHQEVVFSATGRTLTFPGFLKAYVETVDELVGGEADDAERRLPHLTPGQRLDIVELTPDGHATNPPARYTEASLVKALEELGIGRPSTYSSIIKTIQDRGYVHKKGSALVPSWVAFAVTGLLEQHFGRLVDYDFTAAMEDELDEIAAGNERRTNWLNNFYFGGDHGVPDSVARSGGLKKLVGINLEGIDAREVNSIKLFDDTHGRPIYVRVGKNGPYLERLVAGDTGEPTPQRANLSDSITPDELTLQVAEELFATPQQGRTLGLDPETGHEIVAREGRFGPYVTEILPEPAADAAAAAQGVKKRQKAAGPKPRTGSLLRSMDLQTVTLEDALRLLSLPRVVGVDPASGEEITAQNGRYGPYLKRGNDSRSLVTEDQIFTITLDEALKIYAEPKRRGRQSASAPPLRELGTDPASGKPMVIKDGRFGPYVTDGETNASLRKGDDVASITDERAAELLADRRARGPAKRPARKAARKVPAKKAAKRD

For `Nc1ccc2c(c1)Oc1c(N3CCC(N4CCCCC4)CC3)c(F)cc3c(=O)c(C(=O)O)cn-2c13` [FP-11g], which IC50 is on record?
The IC50 was 240 ± 40 nM.
